# Experimental data reported in patent US20230028880A1, “CD38-BINDING AGENTS AND USES THEREOF” (Biohaven Therapeutics Ltd., priority 2019, published 2023).
# Several values for one entry are separate records, joined by “and”; a condition that tells them apart may be missing. Identical values can stand only once. Entries after “also recorded” stand apart in the source; their conditions may differ.
# Assays:
# [1] = test system: Effector cells (ADCC reporter cells) with Daudi cells; test: ADCC reporter assay: Daudi cells, IVIG and ADCC reporter effector cells (luciferase, RLU); format: cell-based; settings: IVIG; for Luminescence, ADCC reporter assay: duplicate columns
# How it was run: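 Daudi targets (5,000/well) were combined with compound (8 concentrations, ½-log steps), human IVIG added at 40 ug/mL, and 37,500 ADCC reporter effector cells per well. After 18 h at 37° C and equilibration to 25° C, luciferase luminescence was read.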
# [2] = test system: Daudi cells; test: KILR ADCC killing assay: KILR-transfected Daudi cells with purified NK cells (% dead cells); format: cell-based; settings: for % dead cells, KILR ADCC killing assay: KILR Daudi cells with purified NK cells, duplicate columns
# How it was run: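 Daudi cells carrying a KILR ePL-tagged beta-gal reporter were co-cultured with purified NK cells; cell death releases the reporter into the medium. Complementing enzyme acceptor in the detection reagent gives chemiluminescence, read as % dead cells.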
# [3] = test system: multiple myeloma patient bone marrow plasma cells (CD38+ CD138+); test: Patient bone marrow with autologous CIML NK cells: reduction of plasma cells; format: cell-based, human; settings: 4 hr, IVIG 10 ug/ml (FIG. 7)
# Protocol: Patient bone marrow (3 ml) and blood (20 ml) were shipped at ambient temperature from Discovery Biosciences. Bone marrow was diluted 1:1 with PBS, and […] of bone marrow-PBS mixture was aliquoted into 96 deep well plates. Bone marrow cells were incubated overnight until CIML cells were added next day.
# PBMC were isolated from blood by Ficoll density gradient centrifugation. PBMC were centrifuged at 400 g for 10 min and re-suspended in EasySep buffer. NK cells were isolated using NK cell isolation kits from […] Technologies according to kit's manufacturers' instructions.
# NK cells were re-suspended at 1×10^6 cells/ml in XVIVO15, 10% Human Serum, IL-15 (50 ng/ml), IL-12 (10 ng/ml), IL-18 (50 ng/ml), and incubated for 18 hrs. Following overnight incubation with cytokines, NK cells were washed twice with PBS 5% Human Serum Albumin, counted and re-suspended at a cell density of 2×10^5 cells/ml of XVIVO15 media. Twenty microliters (4000 cells) were added per each well containing 50 µl of bone marrow: PBS mixture. […] Control wells received XVIVO15 media. Well contents were mixed by pipetting up and down and plates were centrifuged at 400 g for 1 min.
# The assay was then incubated for 4 hrs at 37° C. 5% CO2. […] Finally, cells were re-suspended in 200 µl of FACS Buffer and analyzed using Attune Flow Cytometer. Data were analyzed using FlowJo software and graphed using GraphPad Prism.
smiles,measurement,setting,value
CCCCC[C@@H]1NC(=O)[C@H](CCCNC(=N)N)NC(=O)[C@H](C)NC(=O)CSC[C@@H](C(=O)NCCOCCOCCOCCOCCOCCOCCn2nnc3c2CCC2C(CC3)C2COC(=O)N2CCC(C(=O)NCC(=O)N[C@H](CCC(=O)N[C@H](CCC(=O)N[C@H](CCC(=O)O)C(=O)N[C@H](CCC(=O)N[C@H](CCC(=O)NCC(=O)NCC(=O)N[C@@H](CC(=O)O)C(=O)N[C@H]3CSSC[C@@H](C(=O)N[C@H](C(=O)O)[C@@H](C)O)NC(=O)[C@H](Cc4c[nH]c5ccccc45)NC(=O)[C@H](C(C)C)NC(=O)[C@H](CC(C)C)NC(=O)[C@H](CCC(=O)O)NC(=O)CNC(=O)[C@H](CC(C)C)NC(=O)[C@H](Cc4c[nH]cn4)NC(=O)[C@H](Cc4c[nH]c5ccccc45)NC(=O)[C@H](C)NC3=O)C(=O)O)C(=O)O)C(=O)O)C(=O)O)CC2)NC(=O)[C@H](CC(=O)O)NC(=O)[C@H](CCCCC)NC(=O)[C@H](Cc2ccc(-c3ccccc3)cc2)NC(=O)[C@H](CC(C)C)NC(=O)[C@H](C(C)C)NC(=O)CNC(=O)[C@H](CC(=O)O)NC(=O)[C@H](Cc2c[nH]cn2)NC(=O)[C@H](Cc2ccc(O)cc2)NC1=O (stereo partly drawn) [I-17],EC50,[1]; ADCC reporter assay,5.9 nM
same,EC70,"[1]; ADCC reporter cells, 18 h, one set of experiment (FIG. 2)",about 2.7 nM
same,"Luminescence, ADCC reporter assay","[1]; compound 0.3 nM, 18 h",26632 RLU and 25947 RLU
same,"Luminescence, ADCC reporter assay","[1]; compound 1 nM, 18 h",32303 RLU and 36226 RLU
same,"Luminescence, ADCC reporter assay","[1]; compound 3 nM, 18 h",50671 RLU and 54979 RLU
same,"Luminescence, ADCC reporter assay","[1]; compound 10 nM, 18 h",63014 RLU and 62702 RLU
same,"Luminescence, ADCC reporter assay","[1]; compound 30 nM, 18 h",69329 RLU and 70980 RLU
same,"Luminescence, ADCC reporter assay","[1]; compound 100 nM, 18 h",70908 RLU and 75233 RLU
same,"Luminescence, ADCC reporter assay","[1]; compound 300 nM, 18 h",69068 RLU and 69848 RLU
same,"Luminescence, ADCC reporter assay","[1]; compound 1000 nM, 18 h",60578 RLU and 59440 RLU
same,EC50,"[2]; KILR Daudi cells, purified NK cells, one set of experiments (FIG. 3)",5.9 nM
same,"% dead cells, KILR ADCC killing assay",[2]; compound 0.3 nM,5.8% and 5.1%
same,"% dead cells, KILR ADCC killing assay",[2]; compound 1 nM,5.6%
same,"% dead cells, KILR ADCC killing assay",[2]; compound 3 nM,6.4% and 7.1%
same,"% dead cells, KILR ADCC killing assay",[2]; compound 10 nM,7% and 7.7%
same,"% dead cells, KILR ADCC killing assay",[2]; compound 100 nM,8.9% and 10.1%
same,"% dead cells, KILR ADCC killing assay",[2]; compound 300 nM,8.5% and 9.6%
same,reduction in the frequencies of CD38+ CD138+ cells in patient bone marrow,[3],effectively reduced frequency of plasma cells; also recorded: can reduce the number of plasma cells
